In ChEMBL document CHEMBL5537173, “Emerging Drug Targets for Antimalarial Drug Discovery: Validation and Insights into Molecular Mechanisms of Function” (J Med Chem, 2024):

Assays:
Plasmepsin V = Plasmepsin V (Plasmodium vivax, UniProt A0A0H4FQ60); experiment: Inhibition of recombinant Plasmodium vivax Plasmepsin V
[1] = target: cGMP-dependent protein kinase (Plasmodium falciparum, UniProt W7JX98); experiment: Inhibition of Plasmodium falciparum NF54 PKG
[2] = Inhibition of Plasmodium falciparum 3D7 EF2

Plasmepsin V, sequence (A0A0H4FQ60 whole entry): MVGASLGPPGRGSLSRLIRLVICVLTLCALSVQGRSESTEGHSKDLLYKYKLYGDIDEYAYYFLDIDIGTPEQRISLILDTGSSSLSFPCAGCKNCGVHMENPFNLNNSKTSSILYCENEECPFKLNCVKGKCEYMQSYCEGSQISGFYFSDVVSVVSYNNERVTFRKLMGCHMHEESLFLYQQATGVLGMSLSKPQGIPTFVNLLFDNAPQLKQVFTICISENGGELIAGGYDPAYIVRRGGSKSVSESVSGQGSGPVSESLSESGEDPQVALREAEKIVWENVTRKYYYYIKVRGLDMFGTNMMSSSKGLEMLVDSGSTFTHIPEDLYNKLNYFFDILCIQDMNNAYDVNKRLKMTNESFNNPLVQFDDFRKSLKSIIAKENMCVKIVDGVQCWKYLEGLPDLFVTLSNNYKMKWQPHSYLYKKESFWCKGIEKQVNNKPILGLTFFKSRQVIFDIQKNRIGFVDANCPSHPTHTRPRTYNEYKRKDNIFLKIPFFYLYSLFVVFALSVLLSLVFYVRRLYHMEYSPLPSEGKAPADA
cGMP-dependent protein kinase, sequence (W7JX98 whole entry): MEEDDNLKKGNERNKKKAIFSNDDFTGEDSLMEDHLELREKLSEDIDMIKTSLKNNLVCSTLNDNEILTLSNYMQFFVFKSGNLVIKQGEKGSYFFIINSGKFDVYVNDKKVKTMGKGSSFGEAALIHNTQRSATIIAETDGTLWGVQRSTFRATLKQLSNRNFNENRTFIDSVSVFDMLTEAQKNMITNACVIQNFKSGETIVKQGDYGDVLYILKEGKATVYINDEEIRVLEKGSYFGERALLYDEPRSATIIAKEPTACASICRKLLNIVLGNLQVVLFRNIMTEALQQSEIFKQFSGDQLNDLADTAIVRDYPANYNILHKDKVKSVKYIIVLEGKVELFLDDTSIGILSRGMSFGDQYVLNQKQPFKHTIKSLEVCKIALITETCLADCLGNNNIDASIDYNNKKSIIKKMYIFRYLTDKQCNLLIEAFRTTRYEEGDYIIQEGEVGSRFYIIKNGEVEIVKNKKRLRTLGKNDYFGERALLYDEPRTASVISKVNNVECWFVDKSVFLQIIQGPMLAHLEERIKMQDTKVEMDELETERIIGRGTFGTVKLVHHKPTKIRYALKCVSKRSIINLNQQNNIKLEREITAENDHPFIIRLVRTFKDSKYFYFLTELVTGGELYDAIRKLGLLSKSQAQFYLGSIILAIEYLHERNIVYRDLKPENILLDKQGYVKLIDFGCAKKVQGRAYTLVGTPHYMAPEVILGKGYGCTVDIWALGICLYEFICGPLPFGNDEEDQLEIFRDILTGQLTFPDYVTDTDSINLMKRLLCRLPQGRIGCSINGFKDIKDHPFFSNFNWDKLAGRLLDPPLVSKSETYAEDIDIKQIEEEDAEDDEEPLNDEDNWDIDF

Question: With `CC(C)C[C@H](NC(=O)[C@@H](NC(=O)[C@H](CCONC(=N)N)NC(=O)OCc1ccccc1)C(C)C)[C@@H](O)CC(=O)NCCc1ccccc1` as the molecule, how does the IC50 (Plasmepsin V) read?
Answer: 0.2 nM

Question: With `CN(C)Cc1ccn2c(-c3ccnc(NCC4CC4)n3)c(-c3ccc(F)c(NS(C)(=O)=O)c3)nc2c1` as the molecule, how does the IC50 [1] read?
Answer: 0.16 nM

Question: Which IC50 [2] does the source give for `O=C(NCCN1CCCC1)c1cc(-c2ccc(CN3CCOCC3)cc2)nc2ccc(F)cc12` [CABAMIQUINE] here?
Answer: 2 nM
